Test results reported in ChEMBL document CHEMBL1128476, “Synthesis and pharmacological evaluation of 2'-hydroxychalcones and flavones as inhibitors of inflammatory mediators generation” (J Med Chem, 1995).

What was measured:
Homo sapiens [1] = species: Homo sapiens; assay: Inhibitory activity against TXB2 generation at 100 uM concentration; format: functional
Homo sapiens [2] = species: Homo sapiens; assay: Inhibitory activity against elastase release by human neutrophils; format: functional; set-up: concentration or dose not given beside the values
[3] = biological target: T1, Phospholipase A2, membrane associated (Homo sapiens) (UniProt P14555); assay: Inhibitory activity against synovial human recombinant phospholipase (hr-PLA2) at 100 uM concentration
T1 sequence (whole entry): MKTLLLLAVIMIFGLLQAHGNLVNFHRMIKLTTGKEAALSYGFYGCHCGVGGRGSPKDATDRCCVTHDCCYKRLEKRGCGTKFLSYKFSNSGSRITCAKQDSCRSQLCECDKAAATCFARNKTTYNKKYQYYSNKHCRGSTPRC

Rattus norvegicus [4] = species: Rattus norvegicus; assay: IC50 value was evaluated by measuring the 50% inhibition of microsomal lipid peroxidation induced by [Fe(3+)]-ADP/NADPH.; format: functional
Rattus norvegicus [5] = species: Rattus norvegicus; assay: Inhibition of microsomal lipid peroxidation induced by [Fe(2+)]/ascorbate at 100 uM concentration; format: functional
Rattus norvegicus [6] = species: Rattus norvegicus; assay: Inhibition of microsomal lipid peroxidation induced by [Fe(3+)]-ADP/NADPH at 100 uM concentration; format: functional
Rattus norvegicus [7] = species: Rattus norvegicus; assay: Percent inhibition was evaluated by measuring the inhibition of microsomal lipid peroxidation induced by CCl4/NADPH; format: functional; settings: dose or concentration not given here
Rattus norvegicus [8] = species: Rattus norvegicus; assay: Percent inhibition was evaluated by measuring the inhibition of peroxyl scavenging activity at 100 uM concentration; format: functional
Rattus norvegicus [9] = species: Rattus norvegicus; assay: Inhibition of microsomal lipid peroxidation induced by CCl4/NADPH; format: functional; settings: dose or concentration not given here
Rattus norvegicus [10] = species: Rattus norvegicus; assay: Percent inhibition was evaluated by measuring the inhibition of peroxyl scavenging activity; format: functional; settings: dose or concentration not given here
Rattus norvegicus [11] = species: Rattus norvegicus; assay: Inhibition of microsomal lipid peroxidation induced by CCl4/NADPH at 100 uM concentration; format: functional
Rattus norvegicus [12] = species: Rattus norvegicus; assay: IC50 value was evaluated by measuring the 50% inhibition of microsomal lipid peroxidation induced by CCl4/NADPH.; format: functional
Rattus norvegicus [13] = species: Rattus norvegicus; assay: Percent inhibition was evaluated by measuring the inhibition of microsomal lipid peroxidation induced by CCl4/NADPH.p < 0.01; format: functional; settings: dose or concentration not given here
Rattus norvegicus [14] = species: Rattus norvegicus; assay: Percent inhibition was evaluated by measuring the inhibition of microsomal lipid peroxidation induced by [Fe(3+)]-ADP/NADPH at 100 uM concentration; format: functional
[15] = biological target: T1, Phospholipase A2, membrane associated (Homo sapiens); assay: Inhibitory activity against synovial human recombinant phospholipase (hr-PLA2) at 1 mM concentration
Rattus norvegicus [16] = species: Rattus norvegicus; assay: Inhibition of microsomal lipid peroxidation induced by CCl4/NADPH.; format: functional
Rattus norvegicus [17] = species: Rattus norvegicus; assay: Inhibition of microsomal lipid peroxidation induced by [Fe(3+)]-ADP/NADPH.; format: functional
Rattus norvegicus [18] = species: Rattus norvegicus; assay: Inhibition of peroxyl scavenging activity at 100 uM concentration; format: functional
Rattus norvegicus [19] = species: Rattus norvegicus; assay: Percent inhibition was evaluated by measuring the inhibition of microsomal lipid peroxidation induced by CCl4/NADPH.; format: functional; settings: dose or concentration not given here
Rattus norvegicus [20] = species: Rattus norvegicus; assay: IC50 value was evaluated by measuring the 50% inhibition of peroxyl scavenging activity.; format: functional
Rattus norvegicus [21] = species: Rattus norvegicus; assay: (§1) Inhibition of microsomal lipid peroxidation induced by CCl4/NADPH in rat liver; format: functional
Rattus norvegicus [22] = species: Rattus norvegicus; assay: Inhibition of microsomal lipid peroxidation induced by [Fe(2+)]/ascorbate in rat liver; format: functional
Rattus norvegicus [23] = species: Rattus norvegicus; assay: Inhibition of microsomal lipid peroxidation induced by [Fe(3+)]-ADP/NADPH in rat liver; format: functional
Rattus norvegicus [24] = species: Rattus norvegicus; assay: as §1; format: functional; settings: dose or concentration not given here
Rattus norvegicus [25] = species: Rattus norvegicus; assay: Inhibition of microsomal lipid peroxidation induced by [Fe(2+)]/ascorbate at given 100 uM concentration in rat liver; format: functional
Rattus norvegicus [26] = species: Rattus norvegicus; assay: Inhibition of microsomal lipid peroxidation induced by [Fe(3+)]-ADP/NADPH at 100 uM concentration in rat liver; format: functional

## COc1ccc(-c2cc(=O)c3ccc(C)c(C)c3o2)cc1OC
Homo sapiens [1]
  Inhibition: 37.4%
Homo sapiens [2]
  Inhibition: 9.6%
[3]
  inhibition: 25.7%
Rattus norvegicus [4]
  IC50: 29.6 µM
Rattus norvegicus [5]
  inhibition: 0%
Rattus norvegicus [6]
  inhibition: 89.6%
Rattus norvegicus [7]
  inhibition: 26.2%
Rattus norvegicus [8]
  inhibition: 37.4%

## COc1ccc(/C=C/C(=O)c2ccc(C)c(C)c2O)cc1OC
Homo sapiens [1]
  Inhibition: 28.1%
Homo sapiens [2]
  Inhibition: 39.6%
[3]
  inhibition: 27.5%
Rattus norvegicus [9]
  inhibition: 55.3%
Rattus norvegicus [5]
  inhibition: 8.2%
Rattus norvegicus [6]
  inhibition: 51%
Rattus norvegicus [10]
  inhibition: 28.8%
Rattus norvegicus [11]
  IC50: 95 µM

## COc1ccc2c(c1)c(CC(=O)O)c(C)n2C(=O)c1ccc(Cl)cc1 [INDOMETHACIN]
Homo sapiens [1]
  Inhibition: 100%
Homo sapiens [2]
  Inhibition: 31.9%

## COc1ccc(/C=C/C(=O)c2ccc(OC)c(OC)c2O)cc1OC
Homo sapiens [1]
  Inhibition: 77.2%
Homo sapiens [2]
  Inhibition: 87.6%
[3]
  inhibition: 55%
Rattus norvegicus [12]
  IC50: 68.6 µM
Rattus norvegicus [5]
  inhibition: 0%
Rattus norvegicus [13]
  inhibition: 57.2%
Rattus norvegicus [14]
  inhibition: 33.1%
Rattus norvegicus [8]
  inhibition: 40%

## CCN(CC)CCCC(C)Nc1c2ccc(Cl)cc2nc2ccc(OC)cc12 (centres undefined)
[15]
  inhibition: 48.9%

## COc1ccc(-c2cc(=O)c3ccc(OC)c(OC)c3o2)cc1OC
Homo sapiens [1]
  Inhibition: 38.6%
Homo sapiens [2]
  Inhibition: 41.7%
[3]
  inhibition: 46.2%
Rattus norvegicus [16]
  IC50: 56.6 µM
Rattus norvegicus [17]
  IC50: 62.6 µM
Rattus norvegicus [5]
  inhibition: 0%
Rattus norvegicus [6]
  inhibition: 93.2%
Rattus norvegicus [18]
  inhibition: 30%
Rattus norvegicus [19]
  inhibition: 58.2%

## CCCOC(=O)c1cc(O)c(O)c(O)c1 [PROPYL GALLATE]
Rattus norvegicus [20]
  IC50: 33.9 µM
Rattus norvegicus [21]
  IC50: 4.5 µM
Rattus norvegicus [22]
  IC50: 4.9 µM
Rattus norvegicus [23]
  IC50: 8 µM
Rattus norvegicus [24]
  inhibition: 100%
Rattus norvegicus [25]
  inhibition: 100%
Rattus norvegicus [26]
  inhibition: 100%
Rattus norvegicus [8]
  inhibition: 100%
